Test system: transformant cell line 61-33γ (host YB2/0) producing a chimeric anti-GD3 antibody
Assay: Fed-batch culture of antibody-producing cells in Q10-containing medium (Example 2)
Type: cell-based, rat
Conditions: Q10-added culture, 50 μmol/L Q10 dissolved in Tween 80, fed-batch culture 11 days
Protocol: The following fed-batch culture was performed with transformant cell line 61-33γ (FERM BP-7325) which was obtained by using hybridoma cell line YB2/0 derived from a rat myeloma cell line as a host cell and produces a chimeric anti-GD3 antibody.
In a T-225 cm^2 flask charged with 30 mL of a serum-free medium (Hybridoma-SFM; manufactured by Invitrogen Corporation), the cells were inoculated to a cell density of 3×10^5 cells/mL, followed by stationary culture in a 5%-CO2 incubator at 37° C. for 3 days.
On the completion of culturing, the resulting cells were inoculated in a 1-liter spinner flask (manufactured by Shibata Hario, Co., Ltd.) containing 0.7 liter of Hybridoma-SFM to 3×10^5 cells/ml. While adjusting the liquid culture to pH 7.1 ±0.1 and the dissolved oxygen concentration to 3±0.2 ppm, culturing was carried out at 37° C. for 11 days under the condition of stirring at 50 rpm. Aeration was carried out via a porous polytetrafluoroethylene tube arranged in the spinner flask, and a mixture gas of air, oxygen and carbon dioxide was supplied. Additionally, the pH was controlled by changing the ratio of air and carbon dioxide and by feeding 1 mol/L sodium carbonate solution. Furthermore, the dissolved oxygen concentration was controlled by changing the ratio of air and oxygen. […]

For COC1=C(OC)C(=O)C(C/C=C(\C)CC/C=C(\C)CC/C=C(\C)CC/C=C(\C)CC/C=C(\C)CC/C=C(\C)CC/C=C(\C)CC/C=C(\C)CC/C=C(\C)CCC=C(C)C)=C(C)C1=O [Q10], the “cumulative number of cells on the completion of culturing” value (Q10-free culture 2.97×10^7) was 3.98×10^7 cells/ml×days and the “relative specific antibody production rate” value (Q10-free culture = 100%) was 137.1%.

From patent US20050175599A1, “Process for producing substance” (Kyowa Hakko Kogyo Co., Ltd., priority 2001, published 2005)
